Data from ChEMBL document CHEMBL1140670, “Synthesis and evaluation of a phosphonate analogue of the soluble guanylate cyclase activator YC-1” (Bioorg Med Chem Lett, 2007).

What was measured:
[1] = Activation of sGC heme complex expressed in Sf9 cells at 150 uM relative to control; details: Homo sapiens
[2] = Activation of sGC heme complex expressed in Sf9 cells at 800 uM relative to control; details: Homo sapiens
[3] = Activation of sGC heme complex expressed in Sf9 cells at 150 uM in presence of nitric oxide relative to control; details: Homo sapiens
[4] = Activation of sGC heme complex expressed in Sf9 cells at 800 uM in presence of nitric oxide relative to control; details: Homo sapiens
[5] = Activation of sGC heme complex expressed in Sf9 cells at 150 uM in presence of carbon monoxide relative to control; details: Homo sapiens
[6] = Activation of sGC heme complex expressed in Sf9 cells at 800 uM in presence of carbon monoxide relative to control; details: Homo sapiens
[7] = Aqueous solubility of the compound; assay type: physicochemical

Row | SMILES | Activity [1] | Activity [2] | Activity [3] | Activity [4] | Activity [5] | Activity [6] | solubility [7]
1 | O=P(O)(O)Cc1ccc(-c2nn(Cc3ccccc3)c3ccccc23)o1 | 5.2 | 1.4 | 38 | 10 | 16 | 1.2 | > 800 µM
2 | OCc1ccc(-c2nn(Cc3ccccc3)c3ccccc23)o1 | 6.4 |  | 270 |  | 87 |  | 
